Legend:
[1] = biological target: PIK3CD (Human) (UniProt O00329); assay: Cell-Based Assay; details: raji
[2] = biological target: PIK3CG (human) (UniProt P48736); assay: Enzyme Assay
[3] = biological target: PIK3CB (Human) (UniProt P42338); assay: Enzyme Assay
[4] = biological target: PIK3CA (human) (UniProt P42336); assay: Enzyme Assay
[5] = biological target: PIK3CD (Human) (UniProt O00329); assay: Enzyme Assay

PIK3CD (Human), sequence (O00329 whole entry, looked up): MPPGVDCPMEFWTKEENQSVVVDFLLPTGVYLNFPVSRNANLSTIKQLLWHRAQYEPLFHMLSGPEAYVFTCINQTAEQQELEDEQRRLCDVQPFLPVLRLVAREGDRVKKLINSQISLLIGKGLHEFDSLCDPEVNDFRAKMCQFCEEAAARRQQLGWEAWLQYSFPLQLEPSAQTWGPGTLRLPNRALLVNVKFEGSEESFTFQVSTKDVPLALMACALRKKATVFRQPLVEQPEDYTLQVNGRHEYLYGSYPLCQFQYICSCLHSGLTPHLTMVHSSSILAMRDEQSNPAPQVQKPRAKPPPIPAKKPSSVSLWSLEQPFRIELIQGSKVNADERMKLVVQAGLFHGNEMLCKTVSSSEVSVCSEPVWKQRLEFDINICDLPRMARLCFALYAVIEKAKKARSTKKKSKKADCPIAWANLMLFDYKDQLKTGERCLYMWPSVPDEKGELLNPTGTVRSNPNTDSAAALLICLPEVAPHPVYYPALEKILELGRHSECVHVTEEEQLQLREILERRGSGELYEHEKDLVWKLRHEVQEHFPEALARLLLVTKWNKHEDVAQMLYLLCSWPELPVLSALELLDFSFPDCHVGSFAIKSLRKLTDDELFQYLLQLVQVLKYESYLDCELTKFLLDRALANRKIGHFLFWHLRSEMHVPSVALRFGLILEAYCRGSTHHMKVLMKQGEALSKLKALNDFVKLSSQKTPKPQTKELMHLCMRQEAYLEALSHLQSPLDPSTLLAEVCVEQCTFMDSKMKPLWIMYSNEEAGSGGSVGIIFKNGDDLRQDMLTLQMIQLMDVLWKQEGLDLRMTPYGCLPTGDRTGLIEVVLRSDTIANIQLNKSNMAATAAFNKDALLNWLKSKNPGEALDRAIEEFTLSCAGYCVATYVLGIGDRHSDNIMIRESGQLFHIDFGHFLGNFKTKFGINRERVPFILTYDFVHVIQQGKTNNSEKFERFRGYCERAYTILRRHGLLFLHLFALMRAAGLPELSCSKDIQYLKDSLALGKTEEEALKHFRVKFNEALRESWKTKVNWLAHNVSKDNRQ
PIK3CG (human), sequence (P48736 whole entry, looked up): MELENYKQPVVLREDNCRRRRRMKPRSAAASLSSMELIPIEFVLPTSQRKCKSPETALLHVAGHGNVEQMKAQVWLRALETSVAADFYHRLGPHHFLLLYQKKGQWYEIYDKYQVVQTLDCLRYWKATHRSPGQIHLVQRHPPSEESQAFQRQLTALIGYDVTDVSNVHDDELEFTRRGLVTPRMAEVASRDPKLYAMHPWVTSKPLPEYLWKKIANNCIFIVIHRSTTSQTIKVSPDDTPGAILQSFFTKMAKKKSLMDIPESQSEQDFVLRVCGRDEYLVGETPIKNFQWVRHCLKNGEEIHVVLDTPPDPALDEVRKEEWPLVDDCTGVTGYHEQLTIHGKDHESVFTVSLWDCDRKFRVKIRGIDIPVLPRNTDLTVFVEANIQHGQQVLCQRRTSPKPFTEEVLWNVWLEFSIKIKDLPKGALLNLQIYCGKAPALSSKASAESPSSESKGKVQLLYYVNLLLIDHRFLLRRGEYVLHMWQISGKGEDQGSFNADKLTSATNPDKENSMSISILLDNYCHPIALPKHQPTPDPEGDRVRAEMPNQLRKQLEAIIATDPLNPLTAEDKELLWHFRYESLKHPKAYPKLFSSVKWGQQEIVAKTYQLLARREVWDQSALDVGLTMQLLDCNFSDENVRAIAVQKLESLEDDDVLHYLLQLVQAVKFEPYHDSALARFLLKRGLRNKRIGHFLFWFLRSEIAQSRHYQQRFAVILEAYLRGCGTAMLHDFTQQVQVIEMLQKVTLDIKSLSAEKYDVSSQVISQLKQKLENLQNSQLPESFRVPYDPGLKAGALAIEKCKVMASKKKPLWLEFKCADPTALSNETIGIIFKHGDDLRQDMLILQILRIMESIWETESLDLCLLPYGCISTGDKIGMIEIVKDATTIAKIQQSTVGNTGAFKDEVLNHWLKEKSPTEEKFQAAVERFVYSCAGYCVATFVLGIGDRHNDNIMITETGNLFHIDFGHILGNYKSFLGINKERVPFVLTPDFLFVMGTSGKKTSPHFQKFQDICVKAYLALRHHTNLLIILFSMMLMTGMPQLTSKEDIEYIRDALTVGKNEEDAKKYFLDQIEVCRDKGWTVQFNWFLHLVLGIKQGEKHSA
PIK3CA (human), sequence (P42336 whole entry, looked up): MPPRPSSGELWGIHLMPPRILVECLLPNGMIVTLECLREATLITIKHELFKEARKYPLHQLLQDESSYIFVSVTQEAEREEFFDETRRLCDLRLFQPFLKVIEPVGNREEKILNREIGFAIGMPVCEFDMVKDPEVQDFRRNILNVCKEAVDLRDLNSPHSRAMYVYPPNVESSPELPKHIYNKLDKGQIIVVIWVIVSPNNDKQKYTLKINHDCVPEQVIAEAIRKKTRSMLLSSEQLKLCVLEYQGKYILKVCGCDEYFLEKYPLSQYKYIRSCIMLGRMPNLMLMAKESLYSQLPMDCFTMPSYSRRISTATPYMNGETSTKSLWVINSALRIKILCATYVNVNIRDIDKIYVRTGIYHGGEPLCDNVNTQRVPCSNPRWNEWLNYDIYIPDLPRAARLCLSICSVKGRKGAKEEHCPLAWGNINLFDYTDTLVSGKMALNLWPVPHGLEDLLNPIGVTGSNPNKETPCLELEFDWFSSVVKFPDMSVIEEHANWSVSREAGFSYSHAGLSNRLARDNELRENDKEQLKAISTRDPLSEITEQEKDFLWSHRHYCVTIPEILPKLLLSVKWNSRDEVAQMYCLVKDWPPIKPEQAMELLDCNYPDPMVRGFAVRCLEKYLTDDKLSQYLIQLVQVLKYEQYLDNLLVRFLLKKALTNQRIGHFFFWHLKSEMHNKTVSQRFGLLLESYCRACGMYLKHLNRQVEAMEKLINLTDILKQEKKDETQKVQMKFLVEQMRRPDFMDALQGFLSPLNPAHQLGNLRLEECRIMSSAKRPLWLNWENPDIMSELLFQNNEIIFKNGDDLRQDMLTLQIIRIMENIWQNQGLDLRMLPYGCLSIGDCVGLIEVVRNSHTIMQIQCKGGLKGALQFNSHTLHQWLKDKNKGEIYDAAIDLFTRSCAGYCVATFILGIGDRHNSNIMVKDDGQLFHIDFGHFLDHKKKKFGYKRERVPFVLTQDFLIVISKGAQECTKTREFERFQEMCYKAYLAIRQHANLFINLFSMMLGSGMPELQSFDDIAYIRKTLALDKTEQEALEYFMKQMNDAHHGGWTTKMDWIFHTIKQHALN
PIK3CB (Human), sequence (P42338 whole entry, looked up): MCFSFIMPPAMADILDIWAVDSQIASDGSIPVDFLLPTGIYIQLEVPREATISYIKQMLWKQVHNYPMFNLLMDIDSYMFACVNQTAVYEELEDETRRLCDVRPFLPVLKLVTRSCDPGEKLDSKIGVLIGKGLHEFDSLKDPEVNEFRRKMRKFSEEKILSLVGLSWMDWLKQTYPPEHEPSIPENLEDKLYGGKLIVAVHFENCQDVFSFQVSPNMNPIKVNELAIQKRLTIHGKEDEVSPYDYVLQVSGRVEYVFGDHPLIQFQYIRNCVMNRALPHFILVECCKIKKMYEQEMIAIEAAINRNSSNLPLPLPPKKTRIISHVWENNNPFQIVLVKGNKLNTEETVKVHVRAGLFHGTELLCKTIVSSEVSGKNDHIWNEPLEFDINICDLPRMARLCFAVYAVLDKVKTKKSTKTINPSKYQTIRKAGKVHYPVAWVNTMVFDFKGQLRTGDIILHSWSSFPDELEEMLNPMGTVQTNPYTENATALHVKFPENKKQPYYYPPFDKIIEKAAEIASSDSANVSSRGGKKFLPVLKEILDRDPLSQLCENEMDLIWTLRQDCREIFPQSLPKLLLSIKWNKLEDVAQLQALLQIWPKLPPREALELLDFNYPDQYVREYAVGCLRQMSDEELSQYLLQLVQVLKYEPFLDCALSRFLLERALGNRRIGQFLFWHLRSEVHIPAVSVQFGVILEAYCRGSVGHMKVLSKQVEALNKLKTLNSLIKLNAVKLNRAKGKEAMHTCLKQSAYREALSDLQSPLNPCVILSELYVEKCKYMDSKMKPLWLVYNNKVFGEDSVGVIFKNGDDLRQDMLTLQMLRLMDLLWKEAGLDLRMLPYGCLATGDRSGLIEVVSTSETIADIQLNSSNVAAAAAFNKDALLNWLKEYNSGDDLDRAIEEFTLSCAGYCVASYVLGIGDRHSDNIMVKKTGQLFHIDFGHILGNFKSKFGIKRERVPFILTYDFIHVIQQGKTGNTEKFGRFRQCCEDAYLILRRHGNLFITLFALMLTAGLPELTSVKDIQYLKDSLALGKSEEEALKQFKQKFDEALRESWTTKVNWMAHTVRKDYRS

IC50 [1]	IC50 [2]	IC50 [3]	IC50 [4]	IC50 [5]	Structure (SMILES)
< 100 nM	< 0.1 µM	< 0.1 µM	0.1 to 1 µM	100 to 1000 nM	C[C@H](NC(=O)c1nc(-c2cccc(NS(C)(=O)=O)c2)cnc1N)c1cc2cccc(Cl)c2c(=O)n1C
–	≥ 10 µM	≥ 10 µM	≥ 10 µM	≥ 10000 nM	C[C@H](NC(=O)c1c(N)nn2cccnc12)c1cc2cccc(N3CCN(C)CC3)c2c(=O)n1-c1ccccc1
< 100 nM	< 0.1 µM	0.1 to 1 µM	0.1 to 1 µM	100 to 1000 nM	C[C@H](NC(=O)c1c(N)nn2cccnc12)c1cc2cccc(C#CCNC(=O)[C@@H]3CCC(=O)O3)c2c(=O)n1-c1ccccc1
–	≥ 10 µM	≥ 10 µM	≥ 10 µM	≥ 10000 nM	C[C@H](NC(=O)c1cc(-c2cccc(NS(C)(=O)=O)c2)cnc1N)c1cc2cccc(Cl)c2c(=O)n1-c1ccccc1
< 100 nM	< 0.1 µM	≥ 10 µM	≥ 10 µM	100 to 1000 nM	C[C@H](NC(=O)c1c(N)nn2cccnc12)c1cc2cccc(-c3ccc(=O)n(C)c3)c2c(=O)n1-c1ccccc1
–	≥ 10 µM	≥ 10 µM	≥ 10 µM	< 100 nM	CC(=O)N(C)Cc1cccc2cc([C@H](C)NC(=O)c3c(N)nn4cccnc34)n(-c3ccccc3)c(=O)c12
–	≥ 10 µM	≥ 10 µM	≥ 10 µM	≥ 10000 nM	COc1cc(-c2csc3cc([C@H](C)NC(=O)c4c(N)nn5cccnc45)n(-c4ccccc4)c(=O)c23)ccn1
100 to 1000 nM	< 0.1 µM	< 0.1 µM	0.1 to 1 µM	100 to 1000 nM	C[C@H](NC(=O)c1nc(-c2cncc(NS(C)(=O)=O)c2)cnc1N)c1cc2cccc(Cl)c2c(=O)n1-c1ccccc1
< 100 nM	< 0.1 µM	< 0.1 µM	0.1 to 1 µM	100 to 1000 nM	C[C@H](NC(=O)c1nc(-c2cccc(S(=O)(=O)NC3CC3)c2)cnc1N)c1cc2cccc(Cl)c2c(=O)n1C
–	≥ 10 µM	≥ 10 µM	≥ 10 µM	≥ 10000 nM	C[C@H](NC(=O)c1c(N)nn2cccnc12)c1cc2cccc(NC3CCCCC3)c2c(=O)n1-c1ccccc1

The next lines start with the compound.

Structure (SMILES)	IC50 [1]	IC50 [2]	IC50 [3]	IC50 [4]	IC50 [5]
C[C@H](NC(=O)c1nc(-c2cncc(NS(C)(=O)=O)c2)cnc1N)c1cc2cccc(Cl)c2c(=O)n1C1CC1	–	< 0.1 µM	< 0.1 µM	< 0.1 µM	< 100 nM
C[C@H](NC(=O)c1c(N)nn2cccnc12)c1cc2cccc(/C=C/c3ccccc3)c2c(=O)n1-c1ccccc1	–	≥ 10 µM	≥ 10 µM	≥ 10 µM	≥ 10000 nM
C[C@H](NC(=O)c1nc(-c2cccc(S(=O)(=O)N3CCOCC3)c2)cnc1N)c1cc2cccc(Cl)c2c(=O)n1-c1ccccc1	–	≥ 10 µM	≥ 10 µM	≥ 10 µM	≥ 10000 nM
CC(C)Nc1cccc2cc([C@H](C)NC(=O)c3c(N)nn4cccnc34)n(-c3ccccc3)c(=O)c12	–	≥ 10 µM	≥ 10 µM	≥ 10 µM	≥ 10000 nM
C[C@H](NC(=O)c1c(N)nn2cccnc12)c1cc2cccc(CN(C)C)c2c(=O)n1-c1ccccc1	–	≥ 10 µM	≥ 10 µM	≥ 10 µM	< 100 nM
CC(C)c1ccnc2c(C(=O)N[C@@H](C)c3cc4cccc(Cl)c4c(=O)n3-c3ccccc3)c(N)nn12	–	≥ 10 µM	≥ 10 µM	≥ 10 µM	≥ 10000 nM
C[C@H](NC(=O)c1c(N)nn2ccc(-c3cccc(S(C)(=O)=O)c3)nc12)c1cc2cccc(Cl)c2c(=O)n1-c1ccccc1	< 100 nM	< 0.1 µM	< 0.1 µM	< 0.1 µM	< 100 nM
Nc1nn2cccnc2c1C(=O)NCc1cc2cccc(Cl)c2c(=O)n1-c1ccccc1	–	≥ 10 µM	≥ 10 µM	≥ 10 µM	≥ 10000 nM
COc1cccc(-c2cnc(N)c(C(=O)N[C@@H](C)c3cc4cccc(Cl)c4c(=O)n3-c3ccccc3)n2)c1	–	≥ 10 µM	≥ 10 µM	≥ 10 µM	≥ 10000 nM
C#Cc1cccc2cc([C@H](C)NC(=O)c3c(N)nn4cccnc34)n(-c3ccccc3)c(=O)c12	< 100 nM	< 0.1 µM	0.1 to 1 µM	0.1 to 1 µM	100 to 1000 nM
C[C@H](NC(=O)c1nc(C#N)cnc1N)c1cc2cccc(Cl)c2c(=O)n1-c1ccccc1	< 100 nM	0.1 to 1 µM	0.1 to 1 µM	≥ 10 µM	100 to 1000 nM
C[C@H](NC(=O)c1c(N)nn2c1NCCC2)c1cc2cccc(Cl)c2c(=O)n1-c1ccccc1	–	≥ 10 µM	≥ 10 µM	≥ 10 µM	≥ 10000 nM
C[C@H](NC(=O)c1c(N)nn2cccnc12)c1cc2cccc(Cl)c2c(=O)n1C1CC1	< 100 nM	0.1 to 1 µM	< 0.1 µM	0.1 to 1 µM	100 to 1000 nM
CC(=O)Nc1ncc(-c2cccc(NS(C)(=O)=O)c2)nc1C(=O)N[C@@H](C)c1cc2cccc(Cl)c2c(=O)n1C	–	≥ 10 µM	≥ 10 µM	≥ 10 µM	≥ 10000 nM
C[C@H](NC(=O)c1nc(-c2cccc(S(C)(=O)=O)c2)c(N)nc1N)c1cc2cccc(Cl)c2c(=O)n1-c1ccccc1	< 100 nM	< 0.1 µM	< 0.1 µM	< 0.1 µM	100 to 1000 nM
C[C@H](NC(=O)c1c(N)nn2cccnc12)c1nn2ccc(-c3cnn(C)c3)c2c(=O)n1-c1ccccc1	–	≥ 10 µM	≥ 10 µM	≥ 10 µM	≥ 10000 nM
C[C@H](NC(=O)c1c(N)nn2cccnc12)c1cc2cccc(Cl)c2c(=O)n1CCN(C)S(C)(=O)=O	< 100 nM	< 0.1 µM	0.1 to 1 µM	0.1 to 1 µM	100 to 1000 nM
C[C@H](NC(=O)c1c(N)nn2cccnc12)c1nn2ccc(Cl)c2c(=O)n1-c1ccccc1	–	≥ 10 µM	≥ 10 µM	≥ 10 µM	≥ 10000 nM
C[C@H](NC(=O)c1c(N)nn2cccnc12)c1cc2cccc(NCC(F)(F)F)c2c(=O)n1-c1ccccc1	100 to 1000 nM	–	≥ 10 µM	≥ 10 µM	≥ 10000 nM
C[C@H](NC(=O)c1nccnc1N)c1cc2cccc(Cl)c2c(=O)n1-c1ccc(F)cc1	< 100 nM	0.1 to 1 µM	0.1 to 1 µM	≥ 10 µM	100 to 1000 nM
